Source: patent US20240209014A1, “NOVEL SPINOSYN PRODRUGS” (Acies Bio d.o.o., priority 2021, published 2024)

What was measured:
[1] = tested on: larvae of Ostrinia nubilialis (development stage L1); test: Insecticide efficacy, corn leaf dip, Henderson-Tilton method; type: in vivo
Description: Insecticide activities of the compounds of this invention were assessed in comparison with commercially available samples of spinosad (LGC (Dr. Ehrenstorfer); Product code: DRE-C16972830) and spinetoram (LGC (Dr. Ehrenstorfer); Product code: DRE-C16972770). Solutions of spinosyn compounds were prepared by adding 0.05% Tween 80, lowering pH to 5.95 and sonicating. Two concentrations of each compound were used, 0.1 μg/ml and 0.3 μg/mL, with each condition tested in four parallels.
Freshly collected corn leaves were dipped into the prepared solutions. After dipping leaves were left to dry at room temperature for 1 hour. Each dry leaf was then infested with 4 larvae of Ostrinia nubilialis (development stage L1), and the experimental device was incubated at 21° C.-23° C. for 24 h in order to optimize insect development. At three timings post infestation (1 day, 3 days and 6 days), the insecticide efficacy is evaluated from the number of living larvae using the Henderson-Tilton method. Untreated control was integrated for normalization and validation of larvae health.

[2] = Stability of J1Aa and J7a at different pH values (LC-MS); type: physicochemical
Description: Stability of compounds J1Aa and J7a was evaluated at different pH values. Differential stability/conversion to the active ingredient is expected to result in condition-specific activation and thereby to higher specificity towards target pests.
Stock solutions of the compounds were prepared at concentration of 0.1 mol/L. 10 μL of the stock solutions were transferred to 0.75 ml of the buffer solutions with pH values of 4, 5, 9 and 11. […] After specified times samples were analyzed using LC-MS. The compounds J1Aa and J7a and the active compound spinosyn A were quantified. It is seen that the two compounds are converted to the active form preferably in alkaline conditions.

[3] = tested on: honey bees (Apis melifera carnica, Pollman 1879); test: Single dose acute oral toxicity test on adult worker honey bees; type: in vivo
Description: Toxicity of the compounds of this invention towards honey bees (Apis melifera carnica, Pollman 1879) was assessed in comparison with commercially available samples of spinosad (LGC (Dr. Ehrenstorfer); Product code: DRE-C16972830) and the naturally produced compound butenyl spinosyn alpha 1. Solutions of spinosyn compounds were prepared in 100 mM ammonium acetate, pH=5, and later diluted in 50% (500 g/L) sucrose solution in water to final concentrations. Two final concentrations were used for each compound, 7.76 μmol/L and 15.53 μmol/L.
Single dose acute oral toxicity tests were conducted on adult worker bees according to previously described standard methods (Medrzycki at el., (2013)). Each compound and condition were tested in two parallels. Briefly, each parallel experiment consisted of 5 cages with 20 honey bees per cage. […] After uptake of the solutions honey bees were supplied with standard 50% sucrose solution and observed at 24 h and 48 h and the number of dead and live bees was estimated.
Ammonium acetate solution with pH 5 was used as the negative control.

[4] = single oral dose 0.078 nmol/bee, 24 h after application
[5] = single oral dose 0.078 nmol/bee, 48 h after application
[6] = single oral dose 0.155 nmol/bee, 24 h after application
[7] = single oral dose 0.155 nmol/bee, 48 h after application

Row | Molecule | Compound (J1Aa/J7a) Area % remaining ([2]; buffer pH 4, 0.16 h) [%] | SPN Area % (active spinosyn A released) ([2]; buffer pH 4, 0.16 h) [%] | Compound (J1Aa/J7a) Area % remaining ([2]; buffer pH 4, 6 h) [%] | SPN Area % (active spinosyn A released) ([2]; buffer pH 4, 6 h) [%] | Compound (J1Aa/J7a) Area % remaining ([2]; buffer pH 4, 12 h) [%] | SPN Area % (active spinosyn A released) ([2]; buffer pH 4, 12 h) [%] | Compound (J1Aa/J7a) Area % remaining ([2]; buffer pH 4, 24 h) [%] | SPN Area % (active spinosyn A released) ([2]; buffer pH 4, 24 h) [%] | Compound (J1Aa/J7a) Area % remaining ([2]; buffer pH 5, 0.16 h) [%] | SPN Area % (active spinosyn A released) ([2]; buffer pH 5, 0.16 h) [%] | Compound (J1Aa/J7a) Area % remaining ([2]; buffer pH 5, 6 h) [%] | SPN Area % (active spinosyn A released) ([2]; buffer pH 5, 6 h) [%] | Compound (J1Aa/J7a) Area % remaining ([2]; buffer pH 5, 12 h) [%] | SPN Area % (active spinosyn A released) ([2]; buffer pH 5, 12 h) [%] | Compound (J1Aa/J7a) Area % remaining ([2]; buffer pH 5, 24 h) [%] | SPN Area % (active spinosyn A released) ([2]; buffer pH 5, 24 h) [%] | Compound (J1Aa/J7a) Area % remaining ([2]; buffer pH 9, 0.16 h) [%] | SPN Area % (active spinosyn A released) ([2]; buffer pH 9, 0.16 h) [%] | Compound (J1Aa/J7a) Area % remaining ([2]; buffer pH 9, 6 h) [%] | SPN Area % (active spinosyn A released) ([2]; buffer pH 9, 6 h) [%] | further results
1 | spinetoram [Spinoteram, reference compound] |  |  |  |  |  |  |  |  |  |  |  |  |  |  |  |  |  |  |  |  | % Efficacy ([1]; dose 0.1 μg a.i./ml, 1 day post infestation): 27%; % Efficacy ([1]; dose 0.1 μg a.i./ml, 3 days post infestation): 60%; % Efficacy ([1]; dose 0.1 μg a.i./ml, 6 days post infestation): 85%; % Efficacy ([1]; dose 0.3 μg a.i./ml, 1 day post infestation): 31%; % Efficacy ([1]; dose 0.3 μg a.i./ml, 3 days post infestation): 86%; % Efficacy ([1]; dose 0.3 μg a.i./ml, 6 days post infestation): 97%
2 | CC[C@H]1CCC[C@H](OC2CCC([N+](C)(C)COC(=O)C(C)(C)C)C(C)O2)[C@@H](C)C(=O)C2=C[C@@H]3[C@@H](C=C[C@@H]4C[C@@H](OC5OC(C)C(OC)C(OC)C5OC)C[C@@H]34)[C@@H]2CC(=O)O1 (stereo partly shown) [Compound J1Aa] | 94.2 | 5.8 | 92.9 | 7.1 | 93.8 | 6.2 | 93.5 | 6.5 | 94.1 | 5.9 | 91.0 | 9.0 | 92.0 | 8.0 | 90.4 | 9.6 | 33.1 | 66.9 | 0.0 | 100.0 | Compound (J1Aa/J7a) Area % remaining ([2]; buffer pH 11, 0.16 h): 0.0%; SPN Area % (active spinosyn A released) ([2]; buffer pH 11, 0.16 h): 100.0%; % of surviving honey bees [3, 4]: 99%; % of surviving honey bees [3, 5]: 82%; % of surviving honey bees [3, 6]: 91%; % of surviving honey bees [3, 7]: 42%
3 | CC[C@H]1CCC[C@H](OC2CCC([N+](C)(C)COC(=O)OC(C)C)C(C)O2)[C@@H](C)C(=O)C2=C[C@@H]3[C@@H](C=C[C@@H]4C[C@@H](OC5OC(C)C(OC)C(OC)C5OC)C[C@@H]34)[C@@H]2CC(=O)O1 (stereo partly shown) [Compound J7a] | 92.1 | 7.9 | 91.6 | 8.4 | 91.3 | 8.7 | 90.7 | 9.3 | 91.8 | 8.2 | 90.9 | 9.1 | 90.3 | 9.7 | 89.0 | 11.0 | 44.4 | 55.6 | 0.0 | 100.0 | Compound (J1Aa/J7a) Area % remaining ([2]; buffer pH 11, 0.16 h): 0.1%; SPN Area % (active spinosyn A released) ([2]; buffer pH 11, 0.16 h): 99.9%; % of surviving honey bees [3, 4]: 96%; % of surviving honey bees [3, 5]: 88%; % of surviving honey bees [3, 6]: 97%; % of surviving honey bees [3, 7]: 68%
